# Data reported in ChEMBL document CHEMBL2073761, “Celastraceae sesquiterpenes as a new class of modulators that bind specifically to human P-glycoprotein and reverse cellular multidrug resistance” (Cancer Res, 2004).
# Target: ATP-dependent translocase ABCB1 (Homo sapiens, UniProt P08183)
# Assay: TP_TRANSPORTER: efflux of Tetramethylrosamine in membrane vesicles from reconstituted PMPC proteoliposomes containing P-glycoprotein
# Type: functional, cell membranes, Membrane vesicle from reconstituted proteoliposome
# Sequence of ATP-dependent translocase ABCB1 (P08183 whole entry): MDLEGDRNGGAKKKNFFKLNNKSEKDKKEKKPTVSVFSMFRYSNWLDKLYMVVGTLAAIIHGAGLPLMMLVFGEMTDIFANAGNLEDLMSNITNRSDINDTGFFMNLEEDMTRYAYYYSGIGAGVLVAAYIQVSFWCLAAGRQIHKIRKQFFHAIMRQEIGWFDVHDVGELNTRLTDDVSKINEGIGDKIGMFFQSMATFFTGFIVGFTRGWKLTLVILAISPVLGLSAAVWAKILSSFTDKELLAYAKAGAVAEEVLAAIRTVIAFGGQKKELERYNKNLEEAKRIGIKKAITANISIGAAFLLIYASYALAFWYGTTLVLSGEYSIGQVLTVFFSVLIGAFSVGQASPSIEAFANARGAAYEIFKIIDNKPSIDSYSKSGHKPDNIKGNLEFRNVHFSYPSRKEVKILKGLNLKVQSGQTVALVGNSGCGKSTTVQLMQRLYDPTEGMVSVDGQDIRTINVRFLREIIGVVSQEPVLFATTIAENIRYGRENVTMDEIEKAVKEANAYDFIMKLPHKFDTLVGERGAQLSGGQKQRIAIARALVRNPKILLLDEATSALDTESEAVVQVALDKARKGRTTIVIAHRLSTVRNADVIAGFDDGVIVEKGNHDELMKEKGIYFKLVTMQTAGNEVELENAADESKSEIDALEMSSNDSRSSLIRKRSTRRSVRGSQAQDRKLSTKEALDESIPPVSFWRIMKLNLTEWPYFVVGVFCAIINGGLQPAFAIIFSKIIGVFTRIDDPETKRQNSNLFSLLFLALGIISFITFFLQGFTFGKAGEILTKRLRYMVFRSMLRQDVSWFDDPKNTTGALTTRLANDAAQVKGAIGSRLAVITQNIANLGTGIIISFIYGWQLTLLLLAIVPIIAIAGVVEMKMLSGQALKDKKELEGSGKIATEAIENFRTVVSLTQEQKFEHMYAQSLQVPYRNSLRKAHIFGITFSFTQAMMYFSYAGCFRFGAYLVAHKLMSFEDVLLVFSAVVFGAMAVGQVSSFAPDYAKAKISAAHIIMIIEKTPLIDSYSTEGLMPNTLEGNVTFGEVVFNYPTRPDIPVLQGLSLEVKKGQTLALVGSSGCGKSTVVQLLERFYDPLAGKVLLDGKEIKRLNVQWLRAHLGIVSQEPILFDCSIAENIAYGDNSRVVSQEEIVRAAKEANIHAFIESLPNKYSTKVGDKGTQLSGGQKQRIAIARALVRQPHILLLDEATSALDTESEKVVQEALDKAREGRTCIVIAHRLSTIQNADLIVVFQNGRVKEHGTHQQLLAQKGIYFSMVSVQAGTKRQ
compound,measurement,value
CN(C)c1ccc2c(-c3ccc(CCl)cc3)c3ccc(=[N+](C)C)cc-3oc2c1.[Br-] [TETRAMETHYLROSAMINE],Activity,inhibitor [+]
